Source: patent publication US20060069132A1, “Azolecarboxamide herbicides” (priority 2004, published 2006)

Legend:
johnsongrass = experiment: Test C pre-/postemergence herbicide test; type: in vivo, Sorghum halepense; details: for Johnsongrass plant response rating: 500 g ai/ha
Outline: (§1)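 Visual ratings on a 0–100 scale (100 = complete control) made versus untreated controls after 12 to 14 greenhouse days. Test chemicals, formulated in surfactant-containing non-phytotoxic solvent, applied preemergence to planted seeds or postemergence to 1- to 4-leaf plants (2 to 18 cm).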

pigweed = experiment: Test C pre-/postemergence herbicide test; type: in vivo, Amaranthus retroflexus; details: for Pigweed plant response rating: 500 g ai/ha
Outline: as §1

giant foxtail = experiment: Test A pre-/postemergence herbicide test; type: in vivo, Setaria faberi
Outline: (§2)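 Visual injury scores on a 0–100 scale (100 = complete control) taken about ten days post-treatment in greenhouse against untreated controls; dash means no result. Treatments: preemergence soil spray and postemergence spray to runoff on one- to two-leaf plants 2 to 10 cm tall, surfactant-containing formulation.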

large crabgrass = experiment: Test A pre-/postemergence herbicide test; type: in vivo, Digitaria sanguinalis
Outline: as §2

cocklebur = experiment: Test B pre-/postemergence herbicide test; type: in vivo, Xanthium strumarium
Outline: (§3)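 Flooded paddy rice and barnyardgrass were treated at the 2-leaf stage; upland plantings received compound either on sown seed or on 1- to 4-leaf seedlings. All were kept 13–15 days in a greenhouse and scored visually, 0–100, relative to untreated plants.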

lambsquarters [1] = experiment: Test B pre-/postemergence herbicide test; type: in vivo, Chenopodium album
Outline: as §3

Surinam grass = experiment: Test C pre-/postemergence herbicide test; type: in vivo, Urochloa decumbens; details: for Surinam Grass plant response rating: 500 g ai/ha
Outline: as §1

lambsquarters [2] = experiment: Test C pre-/postemergence herbicide test; type: in vivo, Chenopodium album; details: for Lambsquarters plant response rating: 500 g ai/ha
Outline: as §1

woolly cupgrass = experiment: Test C pre-/postemergence herbicide test; type: in vivo, Eriochloa villosa; details: for Cupgrass, Woolly plant response rating: 500 g ai/ha
Outline: as §1

[3] = 62 g ai/ha, preemergence, scale 0 to 100
[4] = 125 g ai/ha, scale 0 (no effect) to 100 (complete control), visual, 12 to 14 days, preemergence
[5] = Preemergence, scale 0 to 100, 0 no effect, 100 complete control
[6] = Postemergence, 500 g ai/ha, 0 to 100 scale, 0 no effect, 100 complete control
[7] = Postemergence, 2000 g ai/ha, 0 to 100 scale, 0 no effect, 100 complete control
[8] = Preemergence, 500 g ai/ha, visual rating, 0 to 100 scale (0 no effect, 100 complete control)
[9] = Preemergence, 2000 g ai/ha, visual rating, 0 to 100 scale (0 no effect, 100 complete control)
[10] = 500 g ai/ha, visual rating 0-100, 0 no effect, 100 complete control, preemergence
[11] = postemergence, 125 g ai/ha, visual rating, scale 0 (no effect) to 100 (complete control)
[12] = postemergence, 500 g ai/ha, visual rating, scale 0 (no effect) to 100 (complete control)
[13] = preemergence, 125 g ai/ha, 0 to 100 scale, 0 is no effect, 100 is complete control
[14] = 250 g ai/ha, scale 0 to 100 (0 no effect, 100 complete control), visual, 12 to 14 days, preemergence
[15] = Postemergence, 500 g ai/ha, visual rating after 13 to 15 days, scale 0 (no effect) to 100 (complete control)
[16] = Postemergence, 250 g ai/ha, scale 0 to 100, 0 no effect, 100 complete control
[17] = postemergence, 125 g ai/ha, scale 0 to 100
[18] = postemergence, 62 g ai/ha, scale 0 to 100
[19] = 31 g ai/ha, preemergence, scale 0 to 100
[20] = Preemergence, 2000 g ai/ha, 0 to 100 scale, 0 no effect, 100 complete control
[21] = Postemergence, 125 g ai/ha, scale 0 (no effect) to 100 (complete control)
[22] = Preemergence, 500 g ai/ha, scale 0 to 100

CCNC(=O)c1cc(C)nc(NC(=O)c2cc(C(C)(C)C)nn2CC)c1 [Compound 149]
Plant response rating, Johnsongrass (johnsongrass; [3]): 10
Plant response rating, Johnsongrass (johnsongrass; [4]): 60
Johnsongrass plant response rating (johnsongrass; [5]): 100
Plant response rating, Pigweed (pigweed; [3]): 20
Plant response rating, Pigweed (pigweed; [4]): 100
Pigweed plant response rating (pigweed; [5]): 100
Foxtail, Giant plant response rating (giant foxtail; [6]): 40
Plant response rating, Foxtail, Giant (giant foxtail; [7]): 65
Foxtail, Giant plant response rating (giant foxtail; [8]): 70
Foxtail, Giant plant response rating (giant foxtail; [9]): 100
Crabgrass, Large plant response rating (large crabgrass; [6]): 40
Plant response rating, Crabgrass, Large (large crabgrass; [7]): 75
Crabgrass, Large plant response rating (large crabgrass; [8]): 95
Crabgrass, Large plant response rating (large crabgrass; [9]): 100
Plant response rating, Cocklebur (cocklebur; [10]): 0
Cocklebur plant response rating (cocklebur; [11]): 20
Cocklebur plant response rating (cocklebur; [12]): 100
Plant response rating, Cocklebur (cocklebur; [13]): 0
Plant response rating, Lambsquarters (lambsquarters [1]; [10]): 100
Lambsquarters plant response rating (lambsquarters [1]; [11]): 20
Lambsquarters plant response rating (lambsquarters [1]; [12]): 60
Plant response rating, Lambsquarters (lambsquarters [1]; [13]): 60
Plant response rating, Surinam Grass (Surinam grass; [3]): 0
Plant response rating, Surinam Grass (Surinam grass; [4]): 5
Surinam Grass plant response rating (Surinam grass; [5]): 85
Plant response rating, Lambsquarters (lambsquarters [2]; [3]): 75
Plant response rating, Lambsquarters (lambsquarters [2]; [4]): 95
Lambsquarters plant response rating (lambsquarters [2]; [5]): 95
Plant response rating, Cupgrass, Woolly (woolly cupgrass; [3]): 0
Plant response rating, Cupgrass, Woolly (woolly cupgrass; [4]): 5
Plant response rating, Cupgrass, Woolly (woolly cupgrass; [14]): 20
Cupgrass, Woolly plant response rating (woolly cupgrass; [5]): 70

CC(=NO)c1cccc(NC(=O)c2cc(C(C)(C)C)nn2C)c1 [Compound 102]
Plant response rating (0 = no effect, 100 = complete control), Johnsongrass (johnsongrass; 62 g ai/ha, preemergence): 50
Plant response rating, Johnsongrass (johnsongrass; [4]): 80
Johnsongrass plant response rating (johnsongrass; [5]): 100
Plant response rating (0 = no effect, 100 = complete control), Pigweed (pigweed; 62 g ai/ha, preemergence): 90
Plant response rating, Pigweed (pigweed; [4]): 100
Pigweed plant response rating (pigweed; [5]): 100
Foxtail, Giant plant response rating (giant foxtail; [6]): 45
Plant response rating, Foxtail, Giant (giant foxtail; [7]): 65
Foxtail, Giant plant response rating (giant foxtail; [8]): 60
Foxtail, Giant plant response rating (giant foxtail; [9]): 85
Crabgrass, Large plant response rating (large crabgrass; [6]): 60
Plant response rating, Crabgrass, Large (large crabgrass; [7]): 80
Crabgrass, Large plant response rating (large crabgrass; [8]): 95
Crabgrass, Large plant response rating (large crabgrass; [9]): 100
Plant response rating, Cocklebur (cocklebur; [10]): 0
Plant response rating, Cocklebur (cocklebur; [15]): 50
Cocklebur plant response rating (cocklebur; [11]): 30
Plant response rating, Cocklebur (cocklebur; [13]): 0
Plant response rating, Lambsquarters (lambsquarters [1]; [10]): 100
Plant response rating, Lambsquarters (lambsquarters [1]; [15]): 20
Lambsquarters plant response rating (lambsquarters [1]; [11]): 10
Plant response rating, Lambsquarters (lambsquarters [1]; [13]): 100
Plant response rating (0 = no effect, 100 = complete control), Surinam Grass (Surinam grass; 62 g ai/ha, preemergence): 0
Surinam Grass plant response rating (Surinam grass; [5]): 50
Plant response rating (0 = no effect, 100 = complete control), Lambsquarters (lambsquarters [2]; 62 g ai/ha, preemergence): 0
Plant response rating, Lambsquarters (lambsquarters [2]; [4]): 70
Lambsquarters plant response rating (lambsquarters [2]; [5]): 100
Plant response rating (0 = no effect, 100 = complete control), Cupgrass, Woolly (woolly cupgrass; 62 g ai/ha, preemergence): 0
Plant response rating, Cupgrass, Woolly (woolly cupgrass; [4]): 10
Plant response rating, Cupgrass, Woolly (woolly cupgrass; [14]): 20
Cupgrass, Woolly plant response rating (woolly cupgrass; [5]): 40

CCn1nc(C(C)(C)C)cc1C(=O)Nc1cccc(C(=O)NC2CC2)n1 [Compound 146]
Plant response rating, Johnsongrass (johnsongrass; [4]): 30
Johnsongrass plant response rating (johnsongrass; Postemergence, scale 0 to 100): 0
Plant response rating, Johnsongrass (johnsongrass; [16]): 0
Johnsongrass plant response rating (johnsongrass; [5]): 70
Plant response rating, Johnsongrass (johnsongrass; [17]): 0
Plant response rating, Johnsongrass (johnsongrass; [18]): 0
Plant response rating (0 = no effect, 100 = complete control), Pigweed (pigweed; 62 g ai/ha, preemergence): 80
Plant response rating, Pigweed (pigweed; [4]): 95
Pigweed plant response rating (pigweed; Postemergence, scale 0 to 100): 100
Plant response rating, Pigweed (pigweed; [16]): 100
Pigweed plant response rating (pigweed; [5]): 100
Plant response rating, Pigweed (pigweed; [17]): 90
Plant response rating, Pigweed (pigweed; [18]): 80
Foxtail, Giant plant response rating (giant foxtail; [6]): 15
Plant response rating, Foxtail, Giant (giant foxtail; [7]): 40
Foxtail, Giant plant response rating (giant foxtail; [8]): 45
Foxtail, Giant plant response rating (giant foxtail; [9]): 45
Crabgrass, Large plant response rating (large crabgrass; [6]): 15
Plant response rating, Crabgrass, Large (large crabgrass; [7]): 55
Crabgrass, Large plant response rating (large crabgrass; [8]): 70
Crabgrass, Large plant response rating (large crabgrass; [9]): 80
Plant response rating, Cocklebur (cocklebur; [10]): 0
Cocklebur plant response rating (cocklebur; [11]): 20
Cocklebur plant response rating (cocklebur; [12]): 80
Plant response rating, Cocklebur (cocklebur; [13]): 0
Plant response rating, Lambsquarters (lambsquarters [1]; [10]): 100
Lambsquarters plant response rating (lambsquarters [1]; [11]): 80
Lambsquarters plant response rating (lambsquarters [1]; [12]): 90
Plant response rating, Lambsquarters (lambsquarters [1]; [13]): 80
Plant response rating (0 = no effect, 100 = complete control), Surinam Grass (Surinam grass; 62 g ai/ha, preemergence): 0
Plant response rating, Surinam Grass (Surinam grass; [4]): 0
Surinam Grass plant response rating (Surinam grass; Postemergence, scale 0 to 100): 20
Plant response rating, Surinam Grass (Surinam grass; [16]): 0
Surinam Grass plant response rating (Surinam grass; [5]): 50
Plant response rating, Surinam Grass (Surinam grass; [17]): 0
Plant response rating, Surinam Grass (Surinam grass; [18]): 0
Plant response rating (0 = no effect, 100 = complete control), Lambsquarters (lambsquarters [2]; 62 g ai/ha, preemergence): 85
Plant response rating, Lambsquarters (lambsquarters [2]; [4]): 90
Lambsquarters plant response rating (lambsquarters [2]; Postemergence, scale 0 to 100): 100
Plant response rating, Lambsquarters (lambsquarters [2]; [16]): 100
Lambsquarters plant response rating (lambsquarters [2]; [5]): 100
Plant response rating, Lambsquarters (lambsquarters [2]; [17]): 80
Plant response rating, Lambsquarters (lambsquarters [2]; [18]): 40
Plant response rating (0 = no effect, 100 = complete control), Cupgrass, Woolly (woolly cupgrass; 62 g ai/ha, preemergence): 0
Plant response rating, Cupgrass, Woolly (woolly cupgrass; [4]): 0
Plant response rating, Cupgrass, Woolly (woolly cupgrass; [14]): 0
Cupgrass, Woolly plant response rating (woolly cupgrass; Postemergence, scale 0 to 100): 30
Plant response rating, Cupgrass, Woolly (woolly cupgrass; [16]): 30
Cupgrass, Woolly plant response rating (woolly cupgrass; [5]): 0
Plant response rating, Cupgrass, Woolly (woolly cupgrass; [17]): 10
Plant response rating, Cupgrass, Woolly (woolly cupgrass; [18]): 10

CCCCn1nc(C(C)(C)C)cc1C(=O)Nc1cccc(C(=O)NCC)c1 [Compound 41]
Plant response rating, Johnsongrass (johnsongrass; [19]): 0
Plant response rating (0 = no effect, 100 = complete control), Johnsongrass (johnsongrass; 62 g ai/ha, preemergence): 0
Plant response rating, Johnsongrass (johnsongrass; [14]): 20
Plant response rating, Pigweed (pigweed; [19]): 0
Plant response rating (0 = no effect, 100 = complete control), Pigweed (pigweed; 62 g ai/ha, preemergence): 0
Plant response rating, Pigweed (pigweed; [4]): 90
Plant response rating, Pigweed (pigweed; [14]): 100
Plant response rating, Foxtail, Giant (giant foxtail; [6]): 20
Plant response rating, Foxtail, Giant (giant foxtail; [7]): 35
Foxtail, Giant plant response rating (giant foxtail; [8]): 30
Foxtail, Giant plant response rating (giant foxtail; [20]): 70
Plant response rating, Crabgrass, Large (large crabgrass; [6]): 20
Plant response rating, Crabgrass, Large (large crabgrass; [7]): 60
Crabgrass, Large plant response rating (large crabgrass; [8]): 40
Crabgrass, Large plant response rating (large crabgrass; [20]): 80
Cocklebur plant response rating (cocklebur; [21]): 10
Plant response rating, Cocklebur (cocklebur; [15]): 40
Cocklebur plant response rating (cocklebur; [22]): 0
Lambsquarters plant response rating (lambsquarters [1]; [21]): 60
Plant response rating, Lambsquarters (lambsquarters [1]; [15]): 70
Lambsquarters plant response rating (lambsquarters [1]; [22]): 100
Plant response rating, Lambsquarters (lambsquarters [1]; [13]): 80
Plant response rating, Surinam Grass (Surinam grass; [19]): 10
Plant response rating (0 = no effect, 100 = complete control), Surinam Grass (Surinam grass; 62 g ai/ha, preemergence): 20
Plant response rating, Surinam Grass (Surinam grass; [4]): 20
Plant response rating, Surinam Grass (Surinam grass; [14]): 20
Plant response rating, Lambsquarters (lambsquarters [2]; [19]): 0
Plant response rating (0 = no effect, 100 = complete control), Lambsquarters (lambsquarters [2]; 62 g ai/ha, preemergence): 50
Plant response rating, Lambsquarters (lambsquarters [2]; [4]): 90
Plant response rating, Lambsquarters (lambsquarters [2]; [14]): 100
Plant response rating, Cupgrass, Woolly (woolly cupgrass; [19]): 0
Plant response rating (0 = no effect, 100 = complete control), Cupgrass, Woolly (woolly cupgrass; 62 g ai/ha, preemergence): 0
Plant response rating, Cupgrass, Woolly (woolly cupgrass; [4]): 0
Plant response rating, Cupgrass, Woolly (woolly cupgrass; [14]): 30
